Data reported in US20220143006A1, “METHODS OF TREATING CANCER WITH FARNESYLTRANSFERASE INHIBITORS” (Kura Oncology, Inc., priority 2019, published 2022).
“Also recorded” adds a separate entry of the source.

Assays:
[1] = tested on: Ras-dependent and -independent malignant tumors; settings: cited from earlier work
[2] = tested on: unselected tumor populations (AML, MDS/CMML, urothelial cancer, breast cancer, PTCL/CTCL); settings: single agent therapy, in man; cited from earlier work
[3] = tested on: PTCL, not otherwise specified (PTCL-NOS); experiment: Phase 2 clinical study of tipifarnib in PTCL: objective response by KIR mutation status, PTCL-NOS patients; assay type: in vivo, human; settings: FIG. 6, PTCL-NOS patients (N=9) with Q386E mutant of KIR3DL2
Protocol: (§1) This example describes an ongoing Phase 2 clinical study of tipifarnib with the primary objective being to assess the antitumor activity in terms of Overall Response Rate (ORR) of tipifarnib in approximately 18-30 eligible subjects eligible subjects with Peripheral T-Cell Lymphoma (PTCL) (ClinicalTRials.gov identifier: NCT02464228).
(§2) Subjects receive tipifarnib administered at a starting dose of 300 mg, orally with food, twice a day (bid) on Days 1-21 in 28 day cycles (i.e. 3 weeks on/1 week off). Stepwise 100 mg dose reductions to control treatment-related, treatment-emergent toxicities were also allowed. Subjects who received tipifarnib bid on days 1-7 and days 15-21 in 28 day cycles during the conduct of earlier versions of this protocol were permitted to remain on that dose regimen at the discretion of the investigator. Alternatively, the subject was permitted to transition to receive a dose of 300 mg, orally with food, bid on days 1-21 of 28 day treatment cycles beginning on Day 1 of their next cycle. In the absence of unmanageable toxicities, subjects may continue to receive tipifarnib treatment for up to 12 months in the absence of disease progression and unmanageable toxicity. Treatment was permitted to continue beyond 12 months upon agreement of the Investigator and Sponsor.
(§3) Tumor assessments are performed at screening, at the Day 22 visit (±5 days) performed during Cycles 2, 4, 6 and once every approximately 12 weeks (cycles 9, 12, 15, etc.) thereafter, until disease progression.
(§4) Determination of objective tumor response is performed based on the Lugano Classification (Cheson 2014, Appendix II: The Lugano Classification) and/or measurable cutaneous disease according to the modified Severity Weighted Assessment Tool (mSWAT, Olsen 2011, Appendix III: Modified Severity Weighted Assessment Tool).
Primary outcome measures: objective response rate (ORR) following treatment with tipfarnib. [Time Frame: 2 years]. Response assessments according to IWC and/or mSWAT. […]

[4] = tested on: relapsed or refractory Peripheral T-Cell Lymphoma (PTCL); experiment: Phase 2 clinical study of tipifarnib in PTCL (NCT02464228): objective response by KIR mutation status, PTCL-NOS and AITL patients together; assay type: in vivo, human
Protocol: as §1, §2, §3, §4
(§5) Primary outcome measures: objective response rate (ORR) following treatment with tipfarnib. [Time Frame: 2 years]. Response assessments according to IWC and/or mSWAT.
(§6) This Phase II study investigates the antitumor activity in terms of ORR of tipifarnib in approximately 18-30 eligible subjects with relapsed or refractory PTCL. The first 18 subjects were permitted to have the following PTCL sub-types: PTCL, not otherwise specified (PTCL-NOS), angioimmunoblastic T-cell lymphoma (AITL), ALK-positive and -negative anaplastic large cell lymphoma (ALCL), hepatosplenic T-cell lymphoma, enteropathy-associate T-cell lymphoma (EATL), extranodal natural killer (NK) T-cell lymphoma, nasal type and subcutaneous panniculitis-like T-cell lymphoma. The AITL expansion cohort (N=12) enrolls only subjects with AITL. Only consented subjects who meet all eligibility criteria were enrolled in the study. Eligible subjects received tipifarnib administered at a starting dose of 300 mg, orally with food, twice a day (bid) on Days 1-21 in 28 day cycles (i.e. 3 weeks on/1 week off). Stepwise 100 mg dose reductions to control treatment-related, treatment-emergent toxicities were also allowed. Subjects who received tipifarnib bid on days 1-7 and days 15-21 in 28 day cycles during the conduct of earlier versions of this protocol were permitted to remain on that dose regimen at the discretion of the investigator. Alternatively, the subject was permitted to transition to receive a dose of 300 mg, orally with food, bid on days 1-21 of 28 day treatment cycles beginning on Day 1 of their next cycle. In the absence of unmanageable toxicities, subjects may continue to receive tipifarnib treatment for up to 12 months in the absence of disease progression and unmanageable toxicity. Treatment was permitted to continue beyond 12 months upon agreement of the Investigator and Sponsor.
(§7) A two-stage study design was used for the first 18 subjects in order to minimize the number of study subjects treated if tipifarnib were considered not sufficiently efficacious to grant further development in this subject population. […]

[5] = tested on: angioimmunoblastic T-cell lymphoma (AITL); experiment: Phase 2 clinical study of tipifarnib in PTCL: objective response by KIR mutation status, AITL patients; assay type: in vivo, human
Protocol: as §1, §2, §3, §4, §5, §6, §7

tumors in nude mice = settings: cited from earlier work
[6] = FIG. 6, 14 patients with Q386E mutant of KIR3DL2 (PTCL-NOS N=9, AITL N=5)
[7] = FIG. 6, patients (N=13) with wild type (wt) KIR3DL2 at position 386
[8] = AITL, KIR3DL2 C336R/Q386E mutant, N=8
[9] = FIG. 1, 9 AITL patients, carriers of D184N mutant of KIR2DL1
[10] = FIG. 2, 9 AITL patients, carriers of E295D mutant of KIR2DL3
[11] = FIG. 2, 9 AITL patients, carriers of R162T mutant of KIR2DL3
[12] = FIG. 3, 9 AITL patients, carriers of Q149K, Q149R, and I154M mutants of KIR2DL4
[13] = FIG. 5, 9 AITL patients, carriers of C336R and Q386E mutants of KIR3DL2
[14] = FIG. 6, AITL patients (N=5) with Q386E mutant of KIR3DL2
[15] = FIG. 7, subset of 10 AITL patients, carriers of C336R and Q386E mutants of KIR3DL2

NC(=O)N1CCC(CC(=O)N2CCC([C@H]3c4ncc(Br)cc4CCc4cc(Cl)cc(Br)c43)CC2)CC1 [lonafarnib, (+)-(R)-4-[2-[4-(3,10-dibromo-8-chloro-5,6-dihydro-11H-benzo[5,6]cyclohepta[1,2-b]pyridin-11-yl)piperidin-1-yl]-2-oxoethyl]piperidine-1-carboxamide]
activity in malignant tumors [1]: active

Cn1cncc1[C@@](N)(c1ccc(Cl)cc1)c1ccc2c(c1)c(-c1cccc(Cl)c1)cc(=O)n2C [tipifarnib, (B)-6-[amino(4-chlorophenyl)(1-methyl-1H-imidazol-5-yl)methyl]-4-(3-chlorophenyl)-1-methyl-2(1H)-quinolinone]
safety and tolerability [2]: manageable safety profile; also recorded: reasonably well tolerated in man
ORR [3]: 11%
objective responses: number of CR [3]: 1
objective responses: number of progressive disease (PD) [3]: 8
ORR [4, 6]: 36%
objective responses: number of CRs [4, 6]: 3
objective responses: number of PDs [4, 6]: 8
objective responses: number of PRs [4, 6]: 2
objective responses: number of SD [4, 6]: 1
ORR [4, 7]: 8%
objective responses: number of PD [4, 7]: 9
objective responses: number of PR [4, 7]: 1
objective responses: number of SD [4, 7]: 3
Clinical Benefit Rate (CR + PR + SD), patients/N ([5]; AITL, KIR3DL2 C336R/Q386E mutant): 8/8
Clinical Benefit Rate (CR + PR + SD) [5, 8]: 100%
Overall Best Response: Complete Response (CR), number of patients [5, 8]: 4
Overall Best Response: Partial Response (PR), number of patients [5, 8]: 2
Overall Best Response: Stable Disease (SD), number of patients [5, 8]: 2
Overall Response Rate (CR + PR) [5, 8]: 75%
Clinical Benefit Rate (CR + PR + SD), patients/N ([5]; AITL, KIR3DL2 wild type): 2/7
Clinical Benefit Rate (CR + PR + SD) ([5]; AITL, KIR3DL2 wild type, N=7): 29%
Overall Best Response: Partial Response (PR), number of patients ([5]; AITL, KIR3DL2 wild type, N=7): 2
Overall Best Response: Progressive Disease (PD), number of patients ([5]; AITL, KIR3DL2 wild type, N=7): 5
Overall Response Rate (CR + PR) ([5]; AITL, KIR3DL2 wild type, N=7): 29%
objective responses: number of complete responses (CR) [5, 9]: 2
objective responses: number of partial responses (PR) [5, 9]: 1
objective responses: number of complete responses (CR) ([5]; FIG. 1, 9 AITL patients, carriers of F202L mutant of KIR2DL1): 2
objective responses: number of complete responses (CR) ([5]; FIG. 1, 9 AITL patients, carriers of G179R mutant of KIR2DL1): 1
objective responses: number of partial responses (PR) ([5]; FIG. 1, 9 AITL patients, carriers of N178D mutant of KIR2DL1): 1
objective responses: number of complete responses (CR) ([5]; FIG. 1, 9 AITL patients, carriers of R197T mutant of KIR2DL1): 2
objective responses: number of complete responses (CR) [5, 10]: 1
objective responses: number of partial responses (PR) [5, 10]: 1
objective responses: number of complete responses (CR) [5, 11]: 2
objective responses: number of partial responses (PR) [5, 11]: 1
objective responses: number of complete responses (CR) [5, 12]: 2
objective responses: number of partial responses (PR) [5, 12]: 2
objective responses: number of complete responses (CR) [5, 13]: 2
objective responses: number of partial responses (PR) [5, 13]: 2
ORR [5, 14]: 80%
objective responses: number of complete responses (CR) [5, 14]: 2
objective responses: number of partial responses (PR) [5, 14]: 2
objective responses: number of complete responses (CR) [5, 15]: 4
objective responses: number of partial responses (PR) [5, 15]: 2

CC[C@H](C)[C@@H](CO[C@@H](Cc1ccccc1)C(=O)N[C@@H](CCS(C)(=O)=O)C(=O)O)NC[C@@H](N)CS [L-739749, 2(S)-[2(S)-[2(R)-amino-3-mercapto]propylamino-3(S)-methyl]-pentyloxy-3-phenylpropionyl-methionine sulfone]
system toxicity (tumors in nude mice; mouse, in vivo): without system toxicity
antitumor activity (tumors in nude mice; nude mice): potent antitumor activity
